By logP is commonly meant a log measure of how a compound divides between an organic and an aqueous phase.

The structures appear in SMILES notation.

`C=C(C)C(=O)OCC(C)(O)COc1cccc2ccccc12` (stereo unspecified): the logP was 3.77.
The figure for `C=Cc1ccc(C(=O)O)cc1` is 2.18; for `C=C(C)C(=O)OC` it is 0.79.
The molecule `C=C(C)C(=O)OCC(O)COc1cccc2ccccc12` (stereo unspecified) came in with a logP of 3.31.
The figure for `C=C(C)C(=O)OCCOCCOCCOC(=O)C(=C)C` is 1.88; for `Cc1ccc(N(CCO)CCO)cc1` it is 1.09.
Under `C=C(C)C(=O)OCC` stands 1.5; under `C=C(C)C(=O)OCC(O)COc1ccccc1` (stereo unspecified), 2.18; under `O=C(OOC(=O)c1ccccc1)c1ccccc1`, 3.46.
In the case of `C=C(C)C(=O)OCC(CC)CCCC` (stereo unspecified), the logP came out at 4.67.
The figure for `COC(C(=O)c1ccccc1)c1ccccc1` (stereo unspecified) is 1.38.

For the origin of these results see the SangsterLogP compilation.
